Measurements published in US20240024488A1, “COMPOUNDS AND USES THEREOF” (Foghorn Therapeutics Inc., priority 2020, published 2024).

Tests used:
HiBit-BRM fusion protein = target: T1, HiBit-BRM fusion protein (Homo sapiens, UniProt P51531); assay: HiBiT-BRM cell-based degradation assay (Nano-Glo HiBiT Lytic Detection, 24 h); conditions: HeLa cell line expressing HiBiT-BRM; for DC50: read-out: BRM HiBit Degradation IC50
T1 construct: expressed in transfected cells
In short: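 Stable HiBiT-BRM HeLa line; 24 h compound exposure, top final 30 μM, 3-fold, 10 pts in duplicate. Lytic HiBiT/LgBiT luminescence readout. % degradation vs DMSO (0%) and 2 μM known BRM/BRG1 degrader (100%).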

[1] = target: T2, HiBit-BRG1 fusion protein (Homo sapiens, UniProt P51532); assay: HiBiT-BRG1 cell-based degradation assay (Nano-Glo HiBiT Lytic Detection, 24 h); conditions: HeLa cell line expressing HiBit-BRG1 and LgBit; for Dmax: read-out: BRG1 HiBit Degradation Maximum (%)
T2 construct: expressed in transfected cells
T2 sequence (P51532 whole entry, the tested form may be a part): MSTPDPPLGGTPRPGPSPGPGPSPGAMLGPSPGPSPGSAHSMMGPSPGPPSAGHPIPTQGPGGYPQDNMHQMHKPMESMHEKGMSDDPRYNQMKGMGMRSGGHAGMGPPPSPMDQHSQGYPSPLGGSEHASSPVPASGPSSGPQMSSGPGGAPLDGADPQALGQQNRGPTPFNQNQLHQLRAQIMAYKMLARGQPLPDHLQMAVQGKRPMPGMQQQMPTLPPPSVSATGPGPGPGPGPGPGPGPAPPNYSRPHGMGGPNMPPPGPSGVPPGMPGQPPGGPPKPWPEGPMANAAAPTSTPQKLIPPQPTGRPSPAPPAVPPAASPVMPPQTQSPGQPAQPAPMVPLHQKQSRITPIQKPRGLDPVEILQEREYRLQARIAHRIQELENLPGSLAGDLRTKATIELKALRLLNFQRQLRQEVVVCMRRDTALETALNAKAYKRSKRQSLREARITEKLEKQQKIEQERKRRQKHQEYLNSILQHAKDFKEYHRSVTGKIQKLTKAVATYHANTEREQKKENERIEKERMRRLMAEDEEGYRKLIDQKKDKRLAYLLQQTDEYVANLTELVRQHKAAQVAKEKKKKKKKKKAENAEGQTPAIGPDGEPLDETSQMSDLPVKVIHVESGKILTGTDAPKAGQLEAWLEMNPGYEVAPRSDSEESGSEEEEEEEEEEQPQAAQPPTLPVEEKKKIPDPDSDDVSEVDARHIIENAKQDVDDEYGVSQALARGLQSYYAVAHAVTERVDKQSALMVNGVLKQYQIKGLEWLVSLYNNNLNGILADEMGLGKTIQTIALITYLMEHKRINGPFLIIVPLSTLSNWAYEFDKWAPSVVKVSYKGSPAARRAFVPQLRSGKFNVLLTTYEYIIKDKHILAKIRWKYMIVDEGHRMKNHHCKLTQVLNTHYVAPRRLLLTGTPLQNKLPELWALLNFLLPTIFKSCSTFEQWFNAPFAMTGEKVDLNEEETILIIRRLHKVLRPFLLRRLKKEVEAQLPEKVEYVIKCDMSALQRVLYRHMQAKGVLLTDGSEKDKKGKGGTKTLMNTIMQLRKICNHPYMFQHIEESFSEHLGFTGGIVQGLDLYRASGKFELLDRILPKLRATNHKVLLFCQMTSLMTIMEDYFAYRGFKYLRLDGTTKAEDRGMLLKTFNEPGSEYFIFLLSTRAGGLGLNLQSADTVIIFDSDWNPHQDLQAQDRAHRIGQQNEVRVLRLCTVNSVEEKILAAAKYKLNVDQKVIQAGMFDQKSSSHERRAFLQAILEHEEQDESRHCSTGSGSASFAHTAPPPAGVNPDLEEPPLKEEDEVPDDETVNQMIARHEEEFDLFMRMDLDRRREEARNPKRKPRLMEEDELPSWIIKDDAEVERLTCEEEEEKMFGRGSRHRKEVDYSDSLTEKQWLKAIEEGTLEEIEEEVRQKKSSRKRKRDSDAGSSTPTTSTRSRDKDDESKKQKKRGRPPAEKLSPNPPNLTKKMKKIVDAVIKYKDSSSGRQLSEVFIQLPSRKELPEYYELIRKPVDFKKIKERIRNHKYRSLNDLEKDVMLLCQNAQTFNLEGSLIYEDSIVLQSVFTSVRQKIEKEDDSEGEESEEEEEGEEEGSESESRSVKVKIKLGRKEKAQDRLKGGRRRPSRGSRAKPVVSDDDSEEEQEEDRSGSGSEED
In short: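 HeLa cells stably expressing HiBiT-BRG1 plus LgBit, 5000/well, treated 24 h, then lysed with Nano-Glo HiBiT lytic reagent and luminescence read. % degradation normalised between DMSO (high control) and 2 μM reference BRM/BRG1 degrader (low control).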

T1 sequence (P51531 whole entry, the tested form may be a part): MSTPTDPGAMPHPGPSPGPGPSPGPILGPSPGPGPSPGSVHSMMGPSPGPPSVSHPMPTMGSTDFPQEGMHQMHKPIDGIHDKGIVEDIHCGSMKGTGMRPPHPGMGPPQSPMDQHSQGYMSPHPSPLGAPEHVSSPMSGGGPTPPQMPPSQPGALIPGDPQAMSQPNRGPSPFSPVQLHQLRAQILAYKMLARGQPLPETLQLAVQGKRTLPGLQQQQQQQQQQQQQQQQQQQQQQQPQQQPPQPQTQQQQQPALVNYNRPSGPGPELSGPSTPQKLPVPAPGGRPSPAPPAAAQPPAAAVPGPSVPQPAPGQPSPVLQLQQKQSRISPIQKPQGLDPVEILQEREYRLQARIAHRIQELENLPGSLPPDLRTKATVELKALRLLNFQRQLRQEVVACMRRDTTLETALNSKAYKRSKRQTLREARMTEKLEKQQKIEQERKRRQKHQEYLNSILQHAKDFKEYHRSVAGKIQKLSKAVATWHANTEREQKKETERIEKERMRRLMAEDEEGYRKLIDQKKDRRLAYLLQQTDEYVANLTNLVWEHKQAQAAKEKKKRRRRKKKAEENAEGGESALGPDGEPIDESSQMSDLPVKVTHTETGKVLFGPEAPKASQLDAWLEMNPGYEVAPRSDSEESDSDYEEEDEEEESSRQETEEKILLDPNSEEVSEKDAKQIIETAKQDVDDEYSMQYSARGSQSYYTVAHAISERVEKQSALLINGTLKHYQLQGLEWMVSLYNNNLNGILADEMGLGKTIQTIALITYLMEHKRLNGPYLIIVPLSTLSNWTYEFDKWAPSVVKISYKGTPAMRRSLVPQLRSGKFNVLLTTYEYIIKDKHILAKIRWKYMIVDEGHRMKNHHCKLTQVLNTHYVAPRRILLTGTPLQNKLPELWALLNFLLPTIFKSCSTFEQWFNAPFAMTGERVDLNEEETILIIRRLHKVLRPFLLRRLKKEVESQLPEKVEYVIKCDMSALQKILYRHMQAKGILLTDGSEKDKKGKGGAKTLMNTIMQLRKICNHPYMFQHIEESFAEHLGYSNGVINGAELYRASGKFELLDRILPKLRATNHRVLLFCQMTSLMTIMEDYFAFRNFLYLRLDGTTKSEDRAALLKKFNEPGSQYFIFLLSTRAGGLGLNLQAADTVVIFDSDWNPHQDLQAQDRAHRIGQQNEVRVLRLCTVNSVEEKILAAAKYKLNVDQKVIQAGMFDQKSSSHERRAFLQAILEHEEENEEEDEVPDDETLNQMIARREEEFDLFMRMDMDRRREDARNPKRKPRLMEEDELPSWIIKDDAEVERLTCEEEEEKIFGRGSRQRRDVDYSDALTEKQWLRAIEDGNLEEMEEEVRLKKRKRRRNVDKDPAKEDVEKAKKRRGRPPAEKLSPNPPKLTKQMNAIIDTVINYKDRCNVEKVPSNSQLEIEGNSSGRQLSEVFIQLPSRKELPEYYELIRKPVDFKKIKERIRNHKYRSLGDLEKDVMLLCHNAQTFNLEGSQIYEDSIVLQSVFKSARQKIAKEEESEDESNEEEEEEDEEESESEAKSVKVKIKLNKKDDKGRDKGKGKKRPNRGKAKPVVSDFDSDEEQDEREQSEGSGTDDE

| Compound | BRM HiBit Degradation Maximum (%) (HiBit-BRM fusion protein) | DC50 (HiBit-BRM fusion protein) [nM] | Dmax [1] [%] | DC50 ([1]; read-out: BRMG1 HiBit Degradation IC50) [nM] |
| --- | --- | --- | --- | --- |
| O=C1CCC(N2C(=O)c3cccc(OCCCC(=O)N4CC(c5cc6cc(-c7ccccc7O)nnc6[nH]5)C4)c3C2=O)C(=O)N1 (stereo not drawn) [Compound 8, 2-(2,6-dioxopiperidin-3-yl)-4-(4-(3-(3-(2-hydroxyphenyl)-7H-pyrrolo[2,3-c]pyridazin-6-yl)azetidin-1-yl)-4-oxobutoxy)isoindoline-1,3-dione] | A (“A” indicates maximum degradation ≥ 75%) | > 1000 | > 75 | > 1000 |
| O=C1CCC(N2C(=O)c3ccc(NCCCCCCCCC(=O)N4CC(c5cc6cc(-c7ccccc7O)nnc6[nH]5)C4)cc3C2=O)C(=O)N1 (stereo not drawn) [Compound 9, 2-(2,6-dioxopiperidin-3-yl)-5-((9-(3-(3-(2-hydroxyphenyl)-7H-pyrrolo[2,3-c]pyridazin-6-yl)azetidin-1-yl)-9-oxononyl)amino) isoindoline-1,3-dione] | B (“B” indicates maximum degradation ≥ 50%) | > 1000 | < 50 |  |
| Cc1ncsc1-c1ccc(CNC(=O)[C@@H]2C[C@@H](O)CN2C(=O)[C@@H](NC(=O)CCCCCCCC(=O)N2CC(c3cc4cc(-c5ccccc5O)nnc4[nH]3)C2)C(C)(C)C)cc1 [Compound 10, (2S,4R)-4-hydroxy-1-((S)-2-(9-(3-(3-(2-hydroxyphenyl)-7H-pyrrolo[2,3-c]pyridazin-6-yl)azetidin-1-yl)-9-oxononanamido)-3,3-dimethylbutanoyl)-N-(4-(4-methylthiazol-5-yl)benzyl)pyrrolidine-2-carboxamide] | B (“B” indicates maximum degradation ≥ 50%) | > 1000 | < 50 |  |
| Cc1ncsc1-c1ccc([C@H](C)NC(=O)[C@@H]2C[C@@H](O)CN2C(=O)[C@@H](NC(=O)CCCCCCCCCCCCCC(=O)N2CC(c3cc4cc(-c5ccccc5O)nnc4[nH]3)C2)C(C)(C)C)cc1 [Compound 11, (2S,4R)-4-hydroxy-1-((S)-2-(15-(3-(3-(2-hydroxyphenyl)-7H-pyrrolo[2,3-c]pyridazin-6-yl)azetidin-1-yl)-15-oxopentadecanamido)-3,3-dimethylbutanoyl)-N-((S)-1-(4-(4-methylthiazol-5-yl)phenyl)ethyl)pyrrolidine-2-carboxamide] | B (“B” indicates maximum degradation ≥ 50%) | > 100 | < 50 |  |
| Cc1ncsc1-c1ccc([C@H](C)NC(=O)[C@@H]2C[C@@H](O)CN2C(=O)[C@@H](NC(=O)CCCCCCCCCCCCC(=O)N2CC(c3cc4cc(-c5ccccc5O)nnc4[nH]3)C2)C(C)(C)C)cc1 [Compound 12, (2S,4R)-4-hydroxy-1-((S)-2-(14-(3-(3-(2-hydroxyphenyl)-7H-pyrrolo[2,3-c]pyridazin-6-yl)azetidin-1-yl)-14-oxotetradecanamido)-3,3-dimethylbutanoyl)-N-((S)-1-(4-(4-methylthiazol-5-yl)phenyl)ethyl)pyrrolidine-2-carboxamide] | A (“A” indicates maximum degradation ≥ 75%) | > 100 | < 50 |  |
| Cc1ncsc1-c1ccc([C@H](C)NC(=O)[C@@H]2C[C@@H](O)CN2C(=O)[C@@H](NC(=O)CCCCCCCCCCC(=O)N2CC(c3cc4cc(-c5ccccc5O)nnc4[nH]3)C2)C(C)(C)C)cc1 [Compound 13, (2S,4R)-4-hydroxy-1-((S)-2-(12-(3-(3-(2-hydroxyphenyl)-7H-pyrrolo[2,3-c]pyridazin-6-yl)azetidin-1-yl)-12-oxododecanamido)-3,3-dimethylbutanoyl)-N-((S)-1-(4-(4-methylthiazol-5-yl)phenyl)ethyl)pyrrolidine-2-carboxamide] | A (“A” indicates maximum degradation ≥ 75%) | > 100 | < 50 |  |
| Cc1ncsc1-c1ccc(CNC(=O)[C@@H]2C[C@@H](O)CN2C(=O)[C@@H](NC(=O)CCN2CC(c3cc4cc(-c5ccccc5O)nnc4[nH]3)C2)C(C)(C)C)cc1 [Compound 16, (2S,4R)-4-hydroxy-1-((S)-2-(3-(3-(3-(2-hydroxyphenyl)-7H-pyrrolo[2,3-c]pyridazin-6-yl)azetidin-1-yl)propanamido)-3,3-dimethylbutanoyl)-N-(4-(4-methylthiazol-5-yl)benzyl)pyrrolidine-2-carboxamide] | C (“C” indicates maximum degradation < 50%) |  | < 50 |  |
| Cc1ncsc1-c1ccc(CNC(=O)[C@@H]2C[C@@H](O)CN2C(=O)[C@@H](NC(=O)CCCCCCCCCCCCC(=O)N2CC(c3cc4cc(-c5ccccc5O)nnc4[nH]3)C2)C(C)(C)C)cc1 [Compound 17, (2S,4R)-4-hydroxy-1-((S)-2-(14-(3-(3-(2-hydroxyphenyl)-7H-pyrrolo[2,3-c]pyridazin-6-yl)azetidin-1-yl)-14-oxotetradecanamido)-3,3-dimethylbutanoyl)-N-(4-(4-methylthiazol-5-yl)benzyl)pyrrolidine-2-carboxamide] | C (“C” indicates maximum degradation < 50%) |  | < 50 |  |
| Cc1ncsc1-c1ccc(CNC(=O)[C@@H]2C[C@@H](O)CN2C(=O)[C@@H](NC(=O)CCCCC(=O)N2CC(c3cc4cc(-c5ccccc5O)nnc4[nH]3)C2)C(C)(C)C)cc1 [Compound 18, (2S,4R)-4-hydroxy-1-((S)-2-(6-(3-(3-(2-hydroxyphenyl)-7H-pyrrolo[2,3-c]pyridazin-6-yl)azetidin-1-yl)-6-oxohexanamido)-3,3-dimethylbutanoyl)-N-(4-(4-methylthiazol-5-yl)benzyl)pyrrolidine-2-carboxamide] | C (“C” indicates maximum degradation < 50%) |  | < 50 |  |
| Cc1ncsc1-c1ccc(CNC(=O)[C@@H]2C[C@@H](O)CN2C(=O)[C@@H](NC(=O)CCCCCCCCCCCCCCCCC(=O)N2CC(c3cc4cc(-c5ccccc5O)nnc4[nH]3)C2)C(C)(C)C)cc1 [Compound 19, (2S,4R)-4-hydroxy-1-((S)-2-(18-(3-(3-(2-hydroxyphenyl)-7H-pyrrolo[2,3-c]pyridazin-6-yl)azetidin-1-yl)-18-oxooctadecanamido)-3,3-dimethylbutanoyl)-N-(4-(4-methylthiazol-5-yl)benzyl)pyrrolidine-2-carboxamide] | C (“C” indicates maximum degradation < 50%) |  | < 50 |  |
| Cc1ncsc1-c1ccc(CNC(=O)[C@@H]2C[C@@H](O)CN2C(=O)[C@@H](NC(=O)CCCCCCCCCCCCCC(=O)N2CC(c3cc4cc(-c5ccccc5O)nnc4[nH]3)C2)C(C)(C)C)cc1 [Compound 20, (2S,4R)-4-hydroxy-1-((S)-2-(15-(3-(3-(2-hydroxyphenyl)-7H-pyrrolo[2,3-c]pyridazin-6-yl)azetidin-1-yl)-15-oxopentadecanamido)-3,3-dimethylbutanoyl)-N-(4-(4-methylthiazol-5-yl)benzyl)pyrrolidine-2-carboxamide] | C (“C” indicates maximum degradation < 50%) |  | < 50 |  |
| Cc1ncsc1-c1ccc(CNC(=O)[C@@H]2C[C@@H](O)CN2C(=O)[C@@H](NC(=O)CCCCCCCCCCCCCCC(=O)N2CC(c3cc4cc(-c5ccccc5O)nnc4[nH]3)C2)C(C)(C)C)cc1 [Compound 21, (2S,4R)-4-hydroxy-1-((S)-2-(16-(3-(3-(2-hydroxyphenyl)-7H-pyrrolo[2,3-c]pyridazin-6-yl)azetidin-1-yl)-16-oxohexadecanamido)-3,3-dimethylbutanoyl)-N-(4-(4-methylthiazol-5-yl)benzyl)pyrrolidine-2-carboxamide] | C (“C” indicates maximum degradation < 50%) |  | < 50 |  |
| Cc1ncsc1-c1ccc(CNC(=O)[C@@H]2C[C@@H](O)CN2C(=O)[C@@H](NC(=O)CCCCCCCCCCCCCCCC(=O)N2CC(c3cc4cc(-c5ccccc5O)nnc4[nH]3)C2)C(C)(C)C)cc1 [Compound 22, (2S,4R)-4-hydroxy-1-((S)-2-(17-(3-(3-(2-hydroxyphenyl)-7H-pyrrolo[2,3-c]pyridazin-6-yl)azetidin-1-yl)-17-oxoheptadecanamido)-3,3-dimethylbutanoyl)-N-(4-(4-methylthiazol-5-yl)benzyl)pyrrolidine-2-carboxamide] | C (“C” indicates maximum degradation < 50%) |  | < 50 |  |
| O=C1CCC(N2C(=O)c3cccc(OCCOCCOCCC(=O)N4CC(c5cc6cc(-c7ccccc7O)nnc6[nH]5)C4)c3C2=O)C(=O)N1 (stereo not drawn) [Compound 23, 2-(2,6-dioxopiperidin-3-yl)-4-(2-(2-(3-(3-(3-(2-hydroxyphenyl)-7H-pyrrolo[2,3-c]pyridazin-6-yl)azetidin-1-yl)-3-oxopropoxy)ethoxy)ethoxy)isoindoline-1,3-dione] | C (“C” indicates maximum degradation < 50%) |  | < 50 |  |
| O=C1CCC(N2C(=O)c3ccc(OCCOCCOCCC(=O)N4CC(c5cc6cc(-c7ccccc7O)nnc6[nH]5)C4)cc3C2=O)C(=O)N1 (stereo not drawn) [Compound 24, 2-(2,6-dioxopiperidin-3-yl)-5-(2-(2-(3-(3-(3-(2-hydroxyphenyl)-7H-pyrrolo[2,3-c]pyridazin-6-yl)azetidin-1-yl)-3-oxopropoxy)ethoxy)ethoxy)isoindoline-1,3-dione] | C (“C” indicates maximum degradation < 50%) |  | < 50 |  |
| O=C1CCC(N2C(=O)c3ccc(OCCN4CCC(C(=O)N5CC(c6cc7cc(-c8ccccc8O)nnc7[nH]6)C5)CC4)cc3C2=O)C(=O)N1 (stereo not drawn) [Compound 25, 2-(2,6-dioxopiperidin-3-yl)-5-(2-(4-(3-(3-(2-hydroxyphenyl)-7H-pyrrolo[2,3-c]pyridazin-6-yl)azetidine-1-carbonyl)piperidin-1-yl)ethoxy)isoindoline-1,3-dione] | C (“C” indicates maximum degradation < 50%) |  | < 50 |  |
